Measurements published in patent US20230065953A1, “NOVEL HETEROARYL-TRIAZOLE COMPOUNDS AS PESTICIDES” (Bayer Aktiengesellschaft, priority 2019, published 2023).

What was measured:
[1] = test system: fall armyworm larvae (Spodoptera frugiperda); assay: Spodoptera frugiperda spray test (maize leaf sections); format: in vivo; details: 168 h
Protocol: Spodoptera frugiperda—Spray Test • Solvent: 78.0 parts by weight acetone • 1.5 parts by weight dimethylformamide • Emulsifier: alkylarylpolyglycol ether
To produce a suitable preparation of active compound, 1 part by weight of active compound is mixed with the stated amount of solvents and is diluted with water, containing an emulsifier concentration of 1000 ppm, to the desired concentration. Further test concentrations are prepared by dilution with emulsifier containing water.
Maize (Zea mays) leaf sections are sprayed with a preparation of the active ingredient of the desired concentration. Once dry, the leaf sections are infested with fall armyworm larvae (Spodoptera frugiperda).
After 7 days mortality in % is determined. 100% means all caterpillars have been killed and 0% means none of the caterpillars have been killed.

[2] = test system: larvae of the banded cucumber beetle (Diabrotica balteata); assay: Diabrotica balteata spray test; format: in vivo; details: 168 h, 100 g/ha (=32 μg/well), wheat seeds, after 7 days, read-out: efficacy (seedling growth)
Protocol: Diabrotica Balteata—Spray Test
• Solvent: 78.0 parts by weight of acetone • 1.5 parts by weight of dimethylformamide • Emulsifier: alkylarylpolyglycol ether
Further test concentrations are prepared by dilution with emulsifier containing water.
Soaked wheat seeds (Triticum aestivum) are placed in a multiple well plate filled with agar and some water and are incubated for 1 day to germinate (5 seeds per well). The germinated wheat seeds are sprayed with a test solution containing the desired concentration of the active ingredient. Afterwards each unit is infected with 10-20 larvae of the banded cucumber beetle (Diabrotica balteata).
After 7 days efficacy in % is determined.

| SMILES | mortality at 100 g/ha [1] | pest or weed control at 32 µg/disc, 100 g/ha [2] |
| --- | --- | --- |
| Cc1nc([C@H](C)NC(=O)c2cc(Cl)cc(C(F)(F)F)c2)n(-c2ncc(C(=O)N(C)C)s2)n1 [I-22] | 100% | 100% |
| C[C@H](NC(=O)c1cc(F)cc(C#N)c1)c1ncnn1-c1ncc(C#N)s1 [I-41] | 100% | 100% |
| C[C@H](NC(=O)c1cc(Br)cc(C2(F)CC2)c1)c1ncnn1-c1ncc(C#N)s1 [I-43] | 100% | 100% |
| C[C@H](NC(=O)c1cc(C(F)F)cc(C2CC2)c1)c1ncnn1-c1ncc(C#N)s1 [I-44] | 100% | 100% |
| C[C@H](NC(=O)c1cc(Br)cc(C2CC2(F)F)c1)c1ncnn1-c1ncc(C#N)s1 (stereo partly shown) [I-45] | 100% | 100% |
| C[C@H](NC(=O)c1cc(OC(F)(F)F)cc(S(C)(=O)=O)c1)c1nc(C2CC2)nn1-c1ncc(C#N)s1 [I-48] | 100% | 100% |
| C[C@H](NC(=O)c1cc(F)cc(C(F)F)c1)c1ncnn1-c1ncc(C#N)s1 [I-49] | 100% | 100% |
| C[C@H](NC(=O)c1cc(F)cc(OC(F)F)c1)c1ncnn1-c1ncc(C#N)s1 [I-53] | 100% | 100% |
| C[C@H](NC(=O)c1cc(Br)cc(S(=O)(=O)C(F)(F)F)c1)c1ncnn1-c1ncc(C#N)s1 [I-55] | 100% | 100% |
| C[C@H](NC(=O)c1cc(C2CC2)cc(S(=O)(=O)C(F)(F)F)c1)c1ncnn1-c1ncc(C#N)s1 [I-56] | 100% | 100% |
| C[C@H](NC(=O)c1cc(Br)cc(OC(F)(F)F)c1)c1ncnn1-c1ncc(C#N)s1 [I-57] | 100% | 80% |
| C[C@H](NC(=O)c1cc(Br)cc(C#N)c1)c1ncnn1-c1ncc(C#N)s1 [I-58] | – | 100% |
| C[C@H](NC(=O)c1cc(OC(F)(F)F)cc(S(=O)(=O)C2CC2)c1)c1ncnn1-c1ncc(C#N)s1 [I-61] | 100% | 100% |
| CCS(=O)(=O)c1cc(OC(F)(F)F)cc(C(=O)N[C@@H](C)c2ncnn2-c2ncc(C#N)s2)c1 [I-62] | 100% | 100% |
| CC(C)S(=O)(=O)c1cc(OC(F)(F)F)cc(C(=O)N[C@@H](C)c2ncnn2-c2ncc(C#N)s2)c1 [I-63] | – | 100% |
| Cc1nc([C@H](C)NC(=O)c2cc(Cl)cc(C(F)(F)F)c2)n(-c2ncc(C(=O)NC(C)C)s2)n1 [I-68] | 100% | 100% |
| CC(NC(=O)c1cc(Br)cc(OCC(F)(F)F)c1)c1ncnn1-c1ncc(C#N)s1 (stereo not shown) [I-88] | 100% | 100% |
| Cc1nc([C@H](C)NC(=O)c2cc(Br)cc(OCC(F)(F)F)c2)n(-c2ncc(C#N)s2)n1 [I-92] | 100% | 100% |
| C[C@H](NC(=O)c1cc(Cl)cc(C#N)c1)c1ncnn1-c1ncc(C#N)s1 [I-101] | 100% | 100% |
| C[C@H](NC(=O)c1cc(Cl)cc(S(=O)(=O)C(F)(F)F)c1)c1ncnn1-c1ncc(C(=O)N(C)C)s1 [I-116] | 100% | 100% |
| CNC(=O)c1cnc(-n2ncnc2[C@H](C)NC(=O)c2cc(Cl)cc(C3CC3)c2)s1 [I-122] | 100% | 100% |
| C[C@H](NC(=O)c1cc(OC(F)F)cc(S(C)(=O)=O)c1)c1nc(C2CC2)nn1-c1ncc(C#N)s1 [I-132] | 100% | 100% |

| SMILES | mortality at 100 g/ha [1] | pest or weed control at 32 µg/disc, 100 g/ha [2] |
| --- | --- | --- |
| C[C@H](NC(=O)c1cc(OC(F)F)cc(S(=O)(=O)C2CC2)c1)c1nc(C2CC2)nn1-c1ncc(C#N)s1 [I-133] | 100% | 100% |
| C[C@H](NC(=O)c1cc(C#N)cc(OC(F)(F)F)c1)c1ncnn1-c1ncc(C#N)s1 [I-135] | 100% | 100% |
| C[C@H](NC(=O)c1cc(Cl)nc(OC(F)(F)F)c1)c1ncnn1-c1ncc(C#N)s1 [I-139] | 100% | 100% |
| CNC(=O)c1cnc(-n2ncnc2[C@H](C)NC(=O)c2cc(Cl)cc(S(=O)(=O)c3ccc(Cl)cc3)c2)s1 [I-140] | 100% | 100% |
| C[C@H](NC(=O)c1cc(Cl)cc(S(=O)(=O)c2ccc(Cl)cc2)c1)c1ncnn1-c1ncc(C(=O)N(C)C)s1 [I-141] | 100% | – |
| C[C@H](NC(=O)c1cc(Cl)cc(S(=O)(=O)c2ccc(Cl)cc2)c1)c1ncnn1-c1ncc(C#N)s1 [I-143] | 100% | 80% |
| C[C@H](NC(=O)c1cc(OC(F)(F)F)cc(OC(F)(F)F)c1)c1ncnn1-c1ncc(C#N)s1 [I-144] | 100% | 100% |
| C[C@H](NC(=O)c1cc(Br)cc(OC(F)(F)F)c1)c1ncnn1-c1ncc(C(=O)N(C)C2CC2)s1 [I-145] | 100% | 100% |
| C[C@H](NC(=O)c1cc(Cl)cc(S(=O)(=O)C(F)F)c1)c1ncnn1-c1ncc(C(=O)N(C)C2CC2)s1 [I-146] | 100% | 100% |
| C[C@H](NC(=O)c1cc(OC(F)(F)F)cc(S(C)(=O)=O)c1)c1ncnn1-c1ncc(C(=O)N(C)C2CC2)s1 [I-147] | 100% | 100% |
| C[C@H](NC(=O)c1cc(Cl)cc(S(=O)(=O)c2ccc(Cl)cc2)c1)c1ncnn1-c1ncc(C(=O)N(C)C2CC2)s1 [I-149] | 100% | 100% |
| C[C@H](NC(=O)c1cc(C(F)F)cc(C(F)F)c1)c1ncnn1-c1ncc(C(=O)N(C)C2CC2)s1 [I-150] | 100% | 100% |
| C[C@H](NC(=O)c1cc(C(F)(F)F)cc(C(F)(F)F)c1)c1ncnn1-c1ncc(C(=O)N(C)C2CC2)s1 [I-151] | 100% | 100% |
| C[C@H](NC(=O)c1cc(Cl)cc(S(=O)(=O)C(F)(F)F)c1)c1ncnn1-c1ncc(C(=O)N(C)C2CC2)s1 [I-153] | 100% | 100% |
| C[C@H](NC(=O)c1cc(C(F)(F)F)cc(C(F)(F)F)c1)c1nc(C2CC2)nn1-c1ncc(C(=O)N(C)C)s1 [I-156] | 100% | 100% |
| C[C@H](NC(=O)c1cc(OC(F)(F)F)cc(C2CC2)c1)c1nc(C2CC2)nn1-c1ncc(C(=O)N(C)C)s1 [I-157, 2-(3-cyclopropyl-5-{(1S)-1-[3-cyclopropyl-5-(trifluoromethoxy)benzamido]ethyl}-1H-1,2,4-triazol-1-yl)-N,N-dimethyl-1,3-thiazole-5-carboxamide] | 100% | 100% |
| Cc1nc([C@H](C)NC(=O)c2cc(OC(F)(F)F)cc(S(C)(=O)=O)c2)n(-c2ncc(C#N)s2)n1 [I-159] | 100% | 100% |
| Cc1nc([C@H](C)NC(=O)c2cc(Cl)cc(S(=O)(=O)C(F)(F)F)c2)n(-c2ncc(C#N)s2)n1 [I-160] | 100% | 100% |
| Cc1nc([C@H](C)NC(=O)c2cc(S(=O)(=O)C(F)(F)F)cc(S(=O)(=O)C(F)(F)F)c2)n(-c2ncc(C#N)s2)n1 [I-162] | 100% | 100% |
| Cc1nc([C@H](C)NC(=O)c2cc(Cl)cc(S(=O)(=O)C3CC3)c2)n(-c2ncc(C#N)s2)n1 [I-163] | 100% | 100% |
| COc1nc(C(C)NC(=O)c2cc(OC(F)(F)F)cc(S(=O)(=O)C3CC3)c2)n(-c2ncc(C#N)s2)n1 (stereo not shown) [I-200, N-{1-[1-(5-cyano-1,3-thiazol-2-yl)-3-methoxy-1H-1,2,4-triazol-5-yl]ethyl}-3-(cyclopropylsulfonyl)-5-(trifluoromethoxy)benzamide] | – | 100% |
